According to patent US20130011333A1, “Methods and Compositions for Nanoparticle-Mediated Cancer Cell-Targeted Delivery” (Board of Regents, The University of Texas System, priority 2010, published 2013):

Key:
MCF-10A cells [1] = test: FACS (flow cytometry) analysis after irradiation; assay type: cell-based, human; conditions: MCF-10A cells expressing p53/p73OD, 4Gy, 24 h
Experimental: (§1) A. Cells as in FIG. 6 were subject to Western analysis using the indicated antibodies. P53/p73OD expressing MDA-MB-231 or MCF-10A cells were either mock or irradiated with 4Gy. The cells were either harvested at 6 h post-IR for Western analysis (B) or at 24 h for FACS analysis (C). The results are mean±SE from three independent experiments.
(§2) To understand potential mechanisms underlying the differential sensitivity of cancer cells and non-transformed cells to p53/p73OD expression, p53 activity was examined further. […] The result is in line with the notion that cancer cells, but not normal cells, harbor strong intrinsic p53-activating signals. The low activity of p53/p73OD in MCF-10A cells led to the question of whether the chimera could be activated by exogenous stimuli such as radiation.

MDA-MB-231 cells [2] = test: FACS (flow cytometry) analysis after irradiation; assay type: cell-based, human; conditions: MDA-MB-231 cells expressing p53/p73OD, 4Gy, 24 h
Experimental: as §1, §2

MDA-MB-231 cells [3] = test: Western analysis of p53 pathway; assay type: cell-based, human
Experimental: After selection with puromycin, the cells were subjected to colony formation assay. The data are means±SE from three separate experiments (A). Western analysis was performed with cells that were harvested at 48 h pos-selection and probed using the indicated antibodies (B).
as §1
The present invention utilizes a p53/p73 chimera to circumvent this OD-mediated inactivation by mutant p53. A series of p53/p73 chimeric proteins were generated by swapping corresponding domains of p53 and p73 [28]. […] A crystal structure study has confirmed this observation. […] This is of particular significance considering the dominant-negative and gain-of-function activities of mutant p53 that are primarily responsible for the oncogenic function.
as §2

MDA-MB-231 cells [4] = test: Colony formation assay; assay type: cell-based, human; conditions: MDA-MB-231 cells expressing high level of mutant p53, transfected vector
MCF-10A cells [5] = test: Colony formation assay; assay type: cell-based, human; conditions: expression level that markedly inhibits MDA-MB-231 growth
Experimental: FIG. 6. MCF-10A cells are less sensitive to a moderate level of p53/p73OD expression. MCF-10A cells with MDA-MB-231 cells as controls were transfected with the indicated vectors (0.5 μg) and subjected to colony formation assay as in FIG. 5. Western blot was performed in parallel to determine the level of p53/p73OD expression.
As a result, the response of normal cells to a moderate level of p53/p73OD expression is likely to differ from that of cancer cells. This was tested by comparing MDA-MB-231 cells and MCF-10A cells (a non-transformed human breast epithelial cell line), using a similar colony formation assay.

p53 = p53 (Homo sapiens, UniProt P04637); conditions: reference [28]; cited from earlier work
p53, sequence (P04637 whole entry): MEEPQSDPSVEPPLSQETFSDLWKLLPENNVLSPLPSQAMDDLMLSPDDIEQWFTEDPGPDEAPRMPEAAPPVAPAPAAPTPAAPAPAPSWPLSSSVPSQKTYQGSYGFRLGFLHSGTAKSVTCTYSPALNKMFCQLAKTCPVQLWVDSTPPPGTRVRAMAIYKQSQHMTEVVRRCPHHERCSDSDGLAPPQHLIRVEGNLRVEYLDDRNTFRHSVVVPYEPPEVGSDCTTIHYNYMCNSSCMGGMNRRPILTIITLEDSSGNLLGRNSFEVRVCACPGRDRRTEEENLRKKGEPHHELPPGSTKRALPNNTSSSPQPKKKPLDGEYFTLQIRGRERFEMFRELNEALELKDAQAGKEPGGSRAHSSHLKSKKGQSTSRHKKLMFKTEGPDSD

MCF-10A cells [6] = test: Western analysis of p53 pathway; assay type: cell-based, human; conditions: 4Gy, 6 h post-IR
Experimental: as §1, §2

p73 = target: T1, p73 (Homo sapiens, UniProt O15350); conditions: reference [28]; cited from earlier work
T1 sequence (O15350 1-499 isoform O15350-2): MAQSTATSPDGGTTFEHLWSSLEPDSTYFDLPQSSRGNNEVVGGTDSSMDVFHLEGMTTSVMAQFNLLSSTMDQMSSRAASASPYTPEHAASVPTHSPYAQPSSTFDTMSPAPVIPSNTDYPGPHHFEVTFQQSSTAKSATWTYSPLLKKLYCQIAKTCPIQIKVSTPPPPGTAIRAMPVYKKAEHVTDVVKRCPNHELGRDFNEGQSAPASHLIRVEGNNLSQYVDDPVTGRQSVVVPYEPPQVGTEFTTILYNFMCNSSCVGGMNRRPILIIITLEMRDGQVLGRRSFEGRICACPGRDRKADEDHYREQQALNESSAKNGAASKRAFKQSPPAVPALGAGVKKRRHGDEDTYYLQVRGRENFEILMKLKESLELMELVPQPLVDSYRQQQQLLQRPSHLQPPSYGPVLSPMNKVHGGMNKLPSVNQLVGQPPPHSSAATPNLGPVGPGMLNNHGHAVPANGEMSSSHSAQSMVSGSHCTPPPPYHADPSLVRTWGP

[7] = system: MDA-MB-231 cells stably expressing Pg13-GFP; test: Pg13-GFP reporter of p53 activation; assay type: cell-based, human; conditions: delivered with GLU-PEG-PEI, 0.2 μg DNA/60-mm dish, 24 h
Experimental: The cells were fixed 24 h later using 2% formalin and stained with DAPI dye. The top panels show the GFP expression. The bottom panels show cell nuclei detected by DAPI staining.
To facilitate the detection of p53 activation in situ, a Pg13-GFP system was developed in which 13 repeats of a canonical p53 responsive element were cloned to drive the expression of GFP protein. An absolute dependency of the GFP expression on p53 was verified with p53-null H1299 cells. […] The cells were fixed 24 h later.

In the case of “p53/p73OD: human p53 protein in which amino acids 318 to 364 are replaced with amino acids 346-390 of p73 (the oligomerization domain)”, the “G1 cell cycle arrest after IR” value (MCF-10A cells [1]) is reported as “significant G1 cell cycle arrest”, the “G1 cell cycle arrest after IR” value (MDA-MB-231 cells [2]) is reported as “little G1 cell cycle arrest” and the “sub-G1, or apoptotic population after IR” value (MDA-MB-231 cells [2]) is reported as “marked increase”. For the same substance, the “PUMA, MDM2 and p21 expression” value (MDA-MB-231 cells [3]) was “robust induction”, the “phosphorylation after IR” value (MDA-MB-231 cells [3]; 4Gy, 6 h post-IR) was “markedly induced” and the “mutant p53 protein level” value (MDA-MB-231 cells [3]; Western, 48 h post-selection) was “significant decrease”. For the same substance, the “phosphorylation (anti-Sp15p53 Western)” value (MDA-MB-231 cells [3]; no irradiation) was “phosphorylated”, the “cell growth (colony formation)” value (MDA-MB-231 cells [4]) was “effectively inhibited cell growth” and the “cell growth (colony formation)” value (MCF-10A cells [5]) was “did not significantly impact the growth”. The “binding to p53” value (p53) was “does not bind”, the “phosphorylation after IR” value (MCF-10A cells [6]) was “markedly induced” and the “association with p73” value (p73) was “associates”. For the same substance, the “p53 transcription activity (GFP expression)” value [7] was “increase of p53 transcription activity”.
